Measurements taken from PMC5454391, “Improving 10-deacetylbaccatin III-10-β-O-acetyltransferase catalytic fitness for Taxol production” (Nature Communications, 2017).
Substitutions are numbered along the chain they refer to.

Key:
Format in all cases: biochemical
DBAT of T. x media [1] = molecular target: T1, DBAT of T. x media (Taxus x media, UniProt Q6SQJ5); assay: HPLC of baccatin III formed; details: 500 μM acetyl-CoA, 50 mM sodium acetate pH 5.5, 40 °C, 20 min
T1 sequence (Q6SQJ5 1-440): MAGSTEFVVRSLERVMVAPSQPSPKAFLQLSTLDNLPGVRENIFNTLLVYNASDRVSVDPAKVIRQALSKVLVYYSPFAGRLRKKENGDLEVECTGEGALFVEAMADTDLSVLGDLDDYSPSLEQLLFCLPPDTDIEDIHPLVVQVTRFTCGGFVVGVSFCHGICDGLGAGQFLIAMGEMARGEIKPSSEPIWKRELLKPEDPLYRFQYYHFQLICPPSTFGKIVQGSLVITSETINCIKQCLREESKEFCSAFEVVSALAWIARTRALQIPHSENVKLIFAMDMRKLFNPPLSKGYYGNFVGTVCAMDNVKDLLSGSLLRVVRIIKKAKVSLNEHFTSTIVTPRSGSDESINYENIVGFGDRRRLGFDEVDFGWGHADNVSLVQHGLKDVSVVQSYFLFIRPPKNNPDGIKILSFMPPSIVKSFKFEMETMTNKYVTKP

DBAT of T. canadensis [2] = molecular target: T2, DBAT of T. canadensis (Taxus canadensis, UniProt B5KRF5); assay: HPLC of baccatin III formed; details: 500 μM acetyl-CoA, 50 mM sodium acetate pH 5.5, 40 °C, 20 min
T2 sequence (B5KRF5 1-440): T1 sequence (Q6SQJ5 1-440) with V9L, V58A, Q213R, C216R, S228F, S294L, V422M

[3] = molecular target: T3, DBAT of T. wallichiana var. (Taxus mairei, UniProt B5KRG1); assay: HPLC of baccatin III formed; details: 500 μM acetyl-CoA, 50 mM sodium acetate pH 5.5, 40 °C, 20 min
T3 sequence (B5KRG1 1-440): T1 sequence (Q6SQJ5 1-440) with V58A, L123H, V158M, Q213R, C216R, I352V

[4] = molecular target: T3, DBAT of T. wallichiana var.; assay: HPLC of Taxol formed; details: 500 μM acetyl-CoA, 50 mM sodium acetate pH 5.5, […], 180 min
DBAT of T. canadensis [5] = molecular target: T2, DBAT of T. canadensis; assay: HPLC of Taxol formed; details: 500 μM acetyl-CoA, 50 mM sodium acetate pH 5.5, […], 180 min
DBAT of T. x media [6] = molecular target: T1, DBAT of T. x media; assay: HPLC of Taxol formed; details: 500 μM acetyl-CoA, 50 mM sodium acetate pH 5.5, […], 180 min
DBAT of T. brevifolia = molecular target: T4, DBAT of T. brevifolia (Taxus brevifolia, UniProt B5KRG4); assay: HPLC of Taxol formed; details: 500 μM acetyl-CoA, 50 mM sodium acetate pH 5.5, […], 180 min
T4 sequence (B5KRG4 1-440): T1 sequence (Q6SQJ5 1-440) with A52T, V58A, Q213R, C216H, S219T, I352M, L383I, S415L, M417L

SMILES | HPLC of baccatin III formed (DBAT of T. x media [1]) | HPLC of baccatin III formed (DBAT of T. canadensis [2]) | HPLC of baccatin III formed [3] | HPLC of Taxol formed [4] | HPLC of Taxol formed (DBAT of T. canadensis [5]) | HPLC of Taxol formed (DBAT of T. x media [6]) | HPLC of Taxol formed (DBAT of T. brevifolia)
CC(=O)O[C@@]12CO[C@@H]1C[C@H](O)[C@@]1(C)C(=O)[C@H](O)C3=C(C)[C@@H](O)C[C@@](O)([C@@H](OC(=O)c4ccccc4)[C@H]21)C3(C)C [compound 1, 10-DAB] | T. x media origins showed similar conversion rates for 10-DAB | all other recombinant enzymes exhibited acetylation activity against 10-DAB and DT | all other recombinant enzymes exhibited acetylation activity against 10-DAB and DT |  |  |  | 
CC(=O)O[C@@]12CO[C@@H]1C[C@H](O)[C@@]1(C)C(=O)[C@H](O)C3=C(C)[C@@H](OC(=O)[C@H](O)[C@@H](NC(=O)c4ccccc4)c4ccccc4)C[C@@](O)([C@@H](OC(=O)c4ccccc4)[C@H]21)C3(C)C [compound 2, DT] |  |  |  | all other recombinant enzymes exhibited acetylation activity against 10-DAB and DT | all other recombinant enzymes exhibited acetylation activity against 10-DAB and DT | all other recombinant enzymes exhibited acetylation activity against 10-DAB and DT | the DBATs of T. cuspidata and T. brevifolia showed the highest specific activities
